In one data set the test system is RM1 tumor. The data set is described as follows: RM1 tumor growth in C57Bl/6 mice (LOFU, 17AAG). In kind it is in vivo, mouse. Conditions: for tumor volume: intraperitoneal, three times a week, untreated tumor 1879±98.65 mm^3. As for the experimental part: (§1) This protocol yielded an approximate in situ spatial-peak temporal-average acoustic intensity of 270 W/cm^2, resulting in estimated average infra-tumoral temperature elevation of 3.2° C. Post-treatment, there were no signs of normal tissue toxicity such as alopecia, thermal damage, or skin wounds. […] Control mice were injected with equal volume of the vehicle DMSO, which was used to solubilize 17AAG.
(§2) Tumor model and treatment; C57Bl/6 and BalbC nu/nu mice were injected subcutaneously with 1×10^5 RM-1 (murine prostate cancer cell line) and 1×10^6 PC3 (human prostate cancer cell line) cells on the flank, respectively. Approximately 10 days later, the tumor became palpable (3-5 mm in diameter), whereupon LOFU treatment was initiated. […] Palpable tumors were treated with LOFU every 3-4 days for five fractions administered over two weeks. Animals received 17AAG three times a week during this time. Tumor volume measurements were performed twice weekly using Vernier calipers along with simultaneous physical assessment of signs of systemic toxicity (malaise and diarrhea).

Data set [1] is described as follows: Toxicity and dose finding of 17AAG in mice. In kind it is in vivo, mouse. As for the experimental part:
as §1
Thus, these dose levels were selected for the current study. The goal was to combine two therapies that are nontoxic, albeit subtherapeutic, and examine whether the combination can be therapeutic. […] To detect the level of ER stress, the expression levels of ER chaperones, ERp44, ERp57, and ERp72 were quantitated among different treatment groups. ERp44 is responsible for oxidative protein folding. ERp57 is an ER resident thiol disulfide oxidoreductase while Erp72 is a disulfide isomerase. All these proteins participate in the protein folding machinery of the ER.
as §2
Kaplan-Meier Survival analysis: Mice survival/mortality in different treatment groups was analyzed by Kaplan-Meier as a function of radiation dose using Sigma-Plot and GraphPad Prism (version 4.0 for OS X, San Diego, CA, USA) software.

The test system of data set [2] is human hepatocellular carcinoma cell lines (HepG2, Hep3B, Huh7). Description: Cell growth and cell death of human HCC cell lines (LOFU, WP1066). The class given is cell-based. To be noted: WP1066 added prior LOFU treatment.
The subject of a further data set is TPSA23 tumor cells. The data set is described as follows: Clonogenic assay, TPSA23. In kind it is cell-based, murine.

The values below come from US12434076B2, “Low energy immune priming for treating cancer and metastasis” (priority 2017, dated 2025).

SMILES strings stand for the structures.

Regarding `C=CCNC1=C2C[C@@H](C)C[C@H](OC)[C@H](O)[C@@H](C)/C=C(\C)[C@H](OC(N)=O)[C@@H](OC)/C=C\C=C(/C)C(=O)NC(=CC1=O)C2=O` [17AAG, 17-N-allylamino-17-demethoxygeldanamycinan], in the data set with RM1 tumor (17AAG 25 mg/kg body weight), the “average estimated tumor growth slower compared to control group” value is given as 9%. Further, the “interval within which all animals achieved tumor size 2000 mm^3” value in the data set on RM1 tumor (17AAG 25 mg/kg body weight) lay within 26 to 30 days. Moreover, the tumor volume in the data set on RM1 tumor (17AAG 50 mg/kg b.w.) is on record as 964 mm3; with RM1 tumor (17AAG 75 mg/kg b.w.) it was 485±24.25 mm3. For the same compound, in data set [1] (75 mg/kg of body weight, after 21 days of treatment, C57Bl/6 mice), the “death of mice (Kaplan Meier survival analysis)” value came to 50%. For the same compound, the “low dose found to be nontoxic” value in data set [1] (Balb/c nude mice) was 14 mg/kg; in data set [1] (C57Bl/6 mice), 25 mg/kg. Also, in data set [1] (low dose 17AAG 25 mg/kg body weight), the “normal tissue toxic effect” value is listed as “did not show any normal tissue toxic effect”.

Turning to `C[C@H](NC(=O)/C(C#N)=C/c1cccc(Br)n1)c1ccccc1` [WP1066], the inducing cell death entry in data set [2] is listed as “superior effect on inducing cell death”.

Consider `CNC(=O)c1ccc(N2C(=S)N(c3cnc(C#N)c(C(F)(F)F)c3)C(=O)C23CCC3)cc1F` [apalutamide], for which the “clonogenicity (colonies)” value in the data set with TPSA23 tumor cells (5 μM apalutamide in combination with LOFU, vs apalutamide or LOFU alone) is on record as “significantly fewer colonies”. The clonogenicity entry in the data set on TPSA23 tumor cells (10 μM apalutamide alone) was “significant reduction in clonogenicity”; in the data set with TPSA23 tumor cells (10 μM apalutamide in combination with LOFU), “still more effective”.
